Reference: PMC9781117, “New 5-Aryl-1,3,4-Thiadiazole-Based Anticancer Agents: Design, Synthesis, In Vitro Biological Evaluation and In Vivo Radioactive Tracing Studies” (Pharmaceuticals, 2022)
In brackets after ≈: the same amount, converted by molar mass.

Columns and labels:
[1] = system: MCF-7 breast adenocarcinoma cells; assay: MTT cytotoxicity assay, MCF-7; format: cell-based, human; conditions: for fold increase in activity relative to parent analogue: MCF-7, 4d vs 4c, 5b, 5c, 5d vs 5a; for IC50 MCF-7 / IC50: MTT, 48 h, means ± SD of three independent experiments; for IC50: Homo sapiens, MCF7
Protocol: (§1) The in vitro cytotoxicity of the synthesized 1,3,4-thiadiazole derivatives against breast adenocarcinoma cells (MCF-7) and human hepatocellular carcinoma (HepG2) cell lines were evaluated by the MTT assay, using 5-Fluorouracil (5-FU) as a positive control.
(§2) Human hepatocellular carcinoma (HepG2) cells and breast adenocarcinoma (MCF7) cells were purchased from the American Type Culture Collection (ATCC, USA). Under 37 °C with 5% CO2 in a humid incubator, cells were propagated using RPMI supplemented with 10% fetal bovine serum (FBS) and 1% v/v penicillin-streptomycin.
(§3) According to Tim Mosmann’s approach, an MTT assay was performed to assess the antiproliferative properties of the compounds. In short, HepG2 or MCF7 cells (0.5 × 105) were grown in flat-bottom 96-well microplates in 180 μL/well RPMI media supplemented with 10% fetal bovine serum, 2μmol/mL L-glutamine, 250 ng/mL fungizone, and 100 units/mL penicillin-streptomycin solutions at 37 °C in a CO2 incubator. Following incubation, 180 μL/well of the new serum-free medium was added to each well after the old media had been withdrawn. After that, cells were exposed to 20 μL of various concentrations of the compounds (50–0.75 μg/mL) and were incubated for 48 h at 37 °C in a humidified 5% CO2 environment. The MTT solution (20 µL/well) was added and incubated for a further 4 h. The plate was agitated at room temperature while acidified isopropanol (160 μL/well) was added to dissolve the formazan crystals. The absorbance at 570 nm was then determined photometrically using the microplate ELISA reader (FLUOstar Omega, BMG, Labtech, Germany). Graph-Pad PRISM version 6 was used to determine the IC50 for each compound.

[2] = system: HepG2 human hepatocellular carcinoma cells; assay: MTT cytotoxicity assay, HepG2; format: cell-based; conditions: MTT, 48 h, means ± SD of three independent experiments; for IC50: Homo sapiens, HepG2
Protocol: as §1, §2, §3

[3] = system: breast cancer MCF-7 cells; parameters: method as in PMID 22261027; conditions: cited from earlier work

Compound	IC50 MCF-7 [1] [µg/mL]	IC50 HepG2 [2] [µg/mL]	IC50 [1] [µg/mL]	IC50 [2] [µg/mL]	further results
4-((4-((5-(4-Chlorophenyl)-1,3,4-Thiadiazol-2-yl)Imino)-4,5-Dihydrothiazol-2-yl)Amino)Phenol [Compound 5d]	6.12 ± 0.51	14.12 ± 0.01			fold increase in activity relative to parent analogue [1]: 2- to 4 fold
4-((5-(4-Chlorophenyl)-1,3,4-Thiadiazol-2-yl)Imino)-N-(4-Ethylphenyl)-4,5-Dihydrothiazol-2-Amine [Compound 5c]	5.72 ± 0.17	11.25 ± 0.44			fold increase in activity relative to parent analogue [1]: 2- to 4 fold
4-((5-(4-Chlorophenyl)-1,3,4-Thiadiazol-2-yl)Imino)-N-(4-Tolyl)-4,5-Dihydrothiazol-2-Amine [Compound 5b]	12.64 ± 0.47	8.81 ± 0.64			fold increase in activity relative to parent analogue [1]: 2- to 4 fold
4-((5-(4-Chlorophenyl)-1,3,4-Thiadiazol-2-yl)Imino)-N-Phenyl-4,5-Dihydrothiazol-2-Amine [Compound 5a]	24.79 ± 2.30	26.12 ± 2.02			
O=C(C[n+]1ccccc1)Nc1nnc(-c2ccc(Cl)cc2)s1.[Cl-] [Compound 3, 1-(2-((5-(4-Chlorophenyl)-1,3,4-Thiadiazol-2-yl)Amino)-2-Oxoethyl)Pyridinium Chloride]			7.56 ± 1.2	13 ± 0.11	
CN1CCN(CC(=O)Nc2nnc(-c3ccc(Cl)cc3)s2)CC1 [Compound 4a, N-(5-(4-Chlorophenyl)-1,3,4-Thiadiazol-2-yl)-2-(4-Methylpiperazin-1-yl)Acetamide]			51.56 ± 0.48 (≈ 147 µM)	26.3 ± 5.76 (≈ 74.7 µM)	melting point: 168 to 170 °C
CCN1CCN(CC(=O)Nc2nnc(-c3ccc(Cl)cc3)s2)CC1 [Compound 4b, N-(5-(4-Chlorophenyl)-1,3,4-Thiadiazol-2-yl)-2-(4-Ethylpiperazin-1-yl)Acetamide]			25.2 ± 1.3 (≈ 68.9 µM)	3.55 ± 0.05 (≈ 9.7 µM)	
O=C(CN1CCN(c2ccccc2)CC1)Nc1nnc(-c2ccc(Cl)cc2)s1 [Compound 4c, N-(5-(4-Chlorophenyl)-1,3,4-Thiadiazol-2-yl)-2-(4-Phenylpiperazin-1-yl)Acetamide]			49.4 ± 3.5 (≈ 119 µM)	27.9 ± 0.93 (≈ 67.5 µM)	
Cc1ccc(N2CCN(CC(=O)Nc3nnc(-c4ccc(Cl)cc4)s3)CC2)cc1 [Compound 4d, N-(5-(4-Chlorophenyl)-1,3,4-Thiadiazol-2-yl)-2-(4-(4-Tolyl)Piperazin-1-yl)Acetamide]			21.8 ± 0.43 (≈ 50.8 µM)	44.9 ± 1.54 (≈ 105 µM)	fold increase in activity relative to parent analogue [1]: > 2 fold; melting point: 222 to 224 °C
CCOc1ccc(N2CCN(CC(=O)Nc3nnc(-c4ccc(Cl)cc4)s3)CC2)cc1 [Compound 4f, N-(5-(4-Chlorophenyl)-1,3,4-Thiadiazol-2-yl)-2-(4-(4-Ethoxyphenyl)Piperazin-1-yl)Acetamide]			18.4 ± 0.85 (≈ 40.2 µM)	38.1 ± 0.14 (≈ 83.2 µM)	melting point: 225 to 227 °C
O=C(CN1CCN(c2ccc(F)cc2)CC1)Nc1nnc(-c2ccc(Cl)cc2)s1 [Compound 4g, N-(5-(4-Chlorophenyl)-1,3,4-Thiadiazol-2-yl)-2-(4-(4-Fluorophenyl)Piperazin-1-yl)Acetamide]			10.1 ± 1.2 (≈ 23.4 µM)	13.9 ± 0.59 (≈ 32.1 µM)	
O=C(CN1CCN(C(=O)c2ccco2)CC1)Nc1nnc(-c2ccc(Cl)cc2)s1 [Compound 4h, N-(5-(4-Chlorophenyl)-1,3,4-Thiadiazol-2-yl)-2-(4-(Furan-2-Carbonyl)Piperazin-1-yl)Acetamide]			3.21 ± 0.3 (≈ 7.43 µM)	8.35 ± 0.15 (≈ 19.3 µM)	
O=c1[nH]cc(F)c(=O)[nH]1 [Compound 5-FU, 5-Fluorouracil, reference compound]			6.8 ± 0.9 (≈ 52.3 µM)	8.4 ± 1.2 (≈ 64.6 µM)	
COc1ccc(/C=C/C(=O)Nc2nnc(-c3ccc(OC)cc3)s2)cc1 [II]					IC50 MCF-7 growth inhibition [3]: 0.28 µg/mL (≈ 0.762 µM); cell cycle effect in MCF-7 cells [3]: cell cycle arrest at the G2/M phase
N-(4-Bromophenyl)-4-((5-(4-Chlorophenyl)-1,3,4-Thiadiazol-2-yl)Imino)-4,5-Dihydrothiazol-2-Amine [Compound 5e]	3.77 ± 0.13	25.77 ± 0.64			
